Measured values from article PMC7004140, “In vitro hepatotoxicity of Petasites hybridus extract (Ze 339) depends on the concentration, the cytochrome activity of the cell system, and the species used” (Phytotherapy Research, 2019).

Assays:
HepaRG cells [1] = test: Coincubation of Ze 339 with single cytochrome inhibitors in HepaRG cells (WST-1); type: cell-based, human; details: inhibitor 10 μM, Ze 339 100 μg/ml, 4 hr
Experimental: To investigate whether metabolic activation by human phase I enzymes—at least in part—contributes to the cytotoxic effect, Ze 339 (concentrations up to 100 μg/ml) was coincubated in HepaRG cells for 4 hr with different single cytochromes inhibitors: ketoconazole (CYP3A4), sulfaphenazole (CYP2C9), montelukast (CYP2C8), omeprazole (CYP2C19), α‐naphthoflavone (CYP1A2), quinidine (CYP2D6), xanthotoxin (CYP2A6), chlormethiazole (CYP2E1), and ticlopidine (CYP2B6)—(each at a concentration of 10 μM). Inhibition of metabolic activity was evaluated with the WST‐1 assay using Ze 339 without inhibitor as a control.

HepG2 cells = test: WST-1 metabolic activity (cytotoxicity) in HepG2 cells; type: cell-based, human; details: HepG2, up to 250 μM, 4 hr
Experimental: (§1) HepG2 and H‐4‐II‐E cells were differentiated for 24 hr. HepaRG cells were directly seeded in precoated 96‐well microtiter plates and were incubated in William's medium with general purpose supplements according to manufacturer's manual until adherence. All cells were treated with Ze 339 (up to 100 μg/ml) or petasin, isopetasin, neopetasin, petasol, isopetasol, petasin mixture, fatty acid mixture, and reconstituted extracts (up to 250 μM) for 4 hr.
(§2) In the three cell lines, cytotoxicity was defined as a decrease in metabolic activity of ≥20% in the WST‐1 assay. At the end of the experiment, 10 μl WST‐1 reagent was added to each well. Plates were then incubated for 2 hr to allow for the reduction of WST‐1 reagent. Absorbance was measured using a microplate absorbance reader (Infinite M 200, Tecan Trading Ltd., Switzerland) at 450 nm, reference wavelength of 620 nm. Due to some matrix effect, the lowest concentration (0.02 μg/ml for Ze 339 and 3.9 μM for single constituents and mixtures) of each substance tested was defined as 100% metabolic activity. Results were expressed as percentage of the control metabolic activity, and data were presented as mean values ± SEM (n = 3–6).
(§3) Concentration‐response analysis was done using the sigmoidal Hill equation: E(t) = E0 − Emax × C(t)^N/(IC50 ^N + C(t)^N), where E is the effect at time t, E0 the effect at baseline (time = 0), IC50 the concentration yielding 50% of the maximal effect (Emax), and N denotes the sigmoidicity coefficient (Origin 2017 Software). For statistical analysis, analysis of variance with Dunnett's multicomparison test was used to correct for multiplicity of testing (IBM SPSS Statistics software, version 25, IBM Corp., USA). The level of significance was ^* p < .05, ^** p < .01 and ^*** p < .001; NS = no significance.

H-4-II-E cells = test: WST-1 metabolic activity (cytotoxicity) in H-4-II-E cells; type: cell-based, rat (Rattus norvegicus)
Experimental: as §1, §2, §3

HepaRG cells [2] = test: WST-1 metabolic activity (cytotoxicity) in HepaRG cells; type: cell-based, human; details: 4 hr
Experimental: as §1, §2, §3

C=C[C@H]1C[N@@]2CC[C@H]1C[C@@H]2[C@@H](O)c1ccnc2ccc(OC)cc12 [quinidine] was tested, and the “effect of cytochrome inhibitor on the cytotoxic effect of Ze 339” value (HepaRG cells [1]) was “attenuated”.

CC(C)=C1C[C@@]2(C)C(=CC1=O)CC[C@@H](O)[C@@H]2C [isopetasol] was tested, and the cytotoxic effects (HepG2 cells) was “did not show cytotoxic effects”, the “change in metabolic activity” value (H-4-II-E cells; from 7.8 to 125 μM) was “increase in metabolic activity” and the “change in metabolic activity” value (H-4-II-E cells; highest concentration) was “virtually no change”. The cytotoxicity (HepaRG cells [2]; highest concentration) was “not cytotoxic”.

C=C(C)[C@@H]1C[C@@]2(C)C(=CC1=O)CC[C@@H](O)[C@@H]2C [petasol] was tested, and the cytotoxic effects (HepG2 cells) was “did not show cytotoxic effects”, the metabolic activity (H-4-II-E cells; concentrations ≥125 μM) was “up to 109%” and the “change in metabolic activity” value (H-4-II-E cells; medium concentrations 15.6–62.5 μM) was “slight decrease”. The metabolic activity (HepaRG cells [2]; 250 μM) was 68.6%.

For CC(C)(O)c1ccccc1CC[C@@H](SCC1(CC(=O)O)CC1)c1cccc(/C=C/c2ccc3ccc(Cl)cc3n2)c1 [montelukast], the “effect of cytochrome inhibitor on the cytotoxic effect of Ze 339” value (HepaRG cells [1]) was “attenuated”.
